Measurements reported in paper PMC7672424 (Nucleic Acids Research, 2020).

Experiments:
[1] = tested on: tumor cell; assay: Tumor cell proliferation (summary statement); assay type: cell-based; settings: summary value, abstract/introduction
Protocol: (§1) The cell growth effect of BMPQ-1 against different cell lines were tested via measuring the quantity of living cells using the Cell Counting Kit-8 (CCK8) (DOJINDO, Japan) according to the instruction. Cells were seeded in a 96-well plate (5 × 10^3 cells/well) and grown for 24 h for attachment. Then the cells were treated with various concentrations of BMPQ-1 and incubated at 37°C with 5% CO2 for 48 h. After incubation, the old medium was discarded followed by adding fresh medium containing 10% FBS in DMEM. Then 100 μl CCK-8 (10% in grow medium) was added into each well, and the cells were further incubated for 1 h. The optical density (OD) was detected at 450 nm by an automated microplate reader (Bio-Rad). The IC50 values were derived from the curves of the mean percentage of survival against the drug concentration. All the experiments were performed in triplicate.

[2] = tested on: TTA43 (DNA, G4) GGGTTAGGGTTAGGGTTAGGGTGGGTTAGGGTTAGGGTTAGGG; assay: fluorescence titration; settings: 100 mM K+ (KCl) plus potassium phosphate; 10 mM K2HPO4/KH2PO4 pH 7.0; 3 µM compound, DNA 0-10 µM; weaker than TTA45
[3] = tested on: HT29 xenograft; assay: HT29 xenograft mouse model; assay type: in vivo
Protocol: Male BALB/C-nu/nu mice (4 weeks old) were purchased from the Beijing Vital River Laboratory Animal Technology Co., Ltd. and housed at Experimental Animal Center of Huazhong Agriculture University (Wuhan, China) and maintained in pathogen-free conditions (12 h light–dark cycle at 24 ± 1°C with 60−70% humidity and provided with food and water ad libitum). HT29 cells were harvested during log-phase growth and were resuspended in FBS-free DMEM medium to the density of 4 × 10^6 cells per 100 μl. 100 μl cells were injected subcutaneously in the right back of the mice. Tumor growth was examined three times a week after implantation, until the tumor volume reached ∼40 mm^3. The mice were randomly divided into two groups, and each group had five mice. Subcutaneous injection was carried out with BMPQ-1 at a dose of 15 mg/kg for the mice in the experimental group. Mice in the control group were treated with an equivalent volume of normal saline. The volume of the tumor mass was measured with an electronic caliper and calculated as 1/2 × length × width^2 in mm^3. The tumors size and the body weight of the mice were measured every day after drug treatment, and growth curves were plotted using average tumor volume within each experimental group. After treatment for 3 weeks, tumor tissues were collected and tested for the weight and the volume.
We tested BMPQ-1 in a HT29 xenograft mouse model of human colon adenocarcinoma. HT29 tumors were established through the subcutaneous injection of HT29 cells into the right back of BALB/C-nu/nu mice ([57],[58]). The mice were divided into normal saline treated group, and BMPQ-1 (15 mg/kg) treated group, n = 5/group. Subcutaneous injection was given daily. After 3 weeks treatment, the tumors were excised and measured for final size (Figure 3B). The tumor volume in the normal saline group reached 700 mm^3 (Figure 3C). In contrast, in the tumor-bearing mice treated with BMPQ-1, the tumor volume was ∼300 mm^3.

[4] = tested on: TBA (DNA, G4) GGTTGGTGTGGTTGG; assay: CD melting; settings: 50 mM K+; 10 mM Tris-HCl pH 7.4; 5 µM DNA, 20 µM compound
[5] = tested on: FAM-TTA45-Cy5 (DNA, G4) GGGTTAGGGTTAGGGTTAGGGTTAGGGTTAGGGTTAGGGTTAGGG; assay: smFRET population titration; settings: 100 mM K+; 10 mM Tris-HCl pH 7.4, 0.01% Tween 20, 1 mM ascorbic acid, 1 mM methylviologen, room temperature; apparent
[6] = tested on: HepG2; assay: Cell cytotoxicity assay (CCK8); assay type: cell-based, human; settings: Homo sapiens, HepG2; CCK8, 48 h treatment
Protocol: as §1
(§2) A Cell Counting Kit-8 (CCK8) (DOJINDO, Japan) was employed to evaluate the cytotoxicity of BMPQ-1 on human alveolar basal epithelial cancer cell line (A549), human hepatocellular carcinoma cancer cell line (HepG2), human gastric cancer cell line (MGC-803), human colon adenocarcinoma (HT29), human normal liver Cells (HL-7702).

[7] = tested on: A549; assay: Cell cytotoxicity assay (CCK8); assay type: cell-based, human; settings: Homo sapiens, A549; CCK8, 48 h treatment
Protocol: as §1, §2

[8] = tested on: HT29; assay: Cell cytotoxicity assay (CCK8); assay type: cell-based, human; settings: Homo sapiens, HT-29; CCK8, 48 h treatment
Protocol: as §1, §2

[9] = tested on: MGC-803; assay: Cell cytotoxicity assay (CCK8); assay type: cell-based, human; settings: Homo sapiens, MGC-803; CCK8, 48 h treatment
Protocol: as §1, §2

[10] = molecular target: TTA45; assay: smFRET analysis of TTA45 conformational ensemble; assay type: binding, human; settings: from high-FRET population against BMPQ-1 concentration; read-out: dissociation constant (KD)
Protocol: 5′- FAM and 3′-Cy5 labeled TTA45 oligonucleotides were annealed in the buffer of 10 mM Tris–HCl (pH 7.4) and 100 mM KCl, by heating to 95°C for 5 min and slowly cooling down to room temperature. smFRET data collection and analysis were performed as previously described ([43]). In brief, an A1 confocal microscope (Nikon, Japan) coupled to two picosecond pulsed diode laser heads (LDH-P-C-485B and LDH-P-C-640B, PicoQuant, Germany) and two SPCM-AQRH detectors (Excelitas, Canada) was used for fluorescence excitation and emission detection. A 60 × water immersion objective (WI 60×, NA 1.20, Nikon, Japan) was used for confocal laser microscopy, and the pinhole size was set at ∼100 μm. The laser power before the objective was set at ∼100 μW for the 485-nm laser and ∼35 μW for the 640-nm laser. […]
The smFRET measurements were performed at room temperature in pH 7.4 buffer containing 10 mM Tris–HCl, 100 mM KCl, and 0.01% (v/v) Tween 20, with additional 1 mM ascorbic acid and 1 mM methylviologen for photo bleaching and blinking minimization ([44]). […] The exact FRET efficiencies were calculated based on our calibrated parameters for the instrument and fluorophores, and the FRET efficiency distribution was analyzed with a multi-Gaussian mixture using a handwritten script.

[11] = 15 mg/kg subcutaneous daily, 3 weeks

SMILES: Cc1ccc(Cn2cc3c(-c4ccc5c(c4)OCO5)nnc-3c3cc4c(cc32)OCO4)cc1 [BMPQ-1]
- IC50 [1]: ~1 µM
- binding [2]: yes
- mouse body weight [3, 11]: no significant change
- tumor weight [3, 11]: obvious decrease
- tumor volume ([3]; 15 mg/kg subcutaneous daily, 3 weeks, saline group 700 mm^3): ~300 mm^3
- tumor growth rate in mouse ([3]; versus control): by half
- ΔTm [4]: 4.7 °C
- KD [5]: 0.527 ± 0.0689 µM
- IC50 [6]: 2.14 ± 0.26 µM
- IC50 [7]: 1.46 ± 0.16 µM
- IC50 [8]: 1.4 ± 0.06 µM
- IC50 [9]: 2.36 ± 0.48 µM
- Kd [10]: 0.53 µM
